In patent publication US20230416203A1, “POTENT AND SELECTIVE INHIBITORS OF THE CALCIUM-ACTIVATED POTASSIUM CHANNEL, KCA3.1, FOR USE AS PLATFORM THERAPEUTICS” (priority 2020, published 2023):
Entries after “also recorded” stand apart in the source; their conditions may differ.

Legend:
[1] = Microsomal stability studies; conditions: for Microsomal Stability (human) % remaining @ 30 mins: human microsomes, 1 μM; for drug/control (% remaining @ 30 mins): ratio to Verapamil control
CaV1.2 channel = CaV1.2 channel (Homo sapiens, UniProt Q13936); experiment: cell-based
CaV1.2 channel, sequence (Q13936 whole entry): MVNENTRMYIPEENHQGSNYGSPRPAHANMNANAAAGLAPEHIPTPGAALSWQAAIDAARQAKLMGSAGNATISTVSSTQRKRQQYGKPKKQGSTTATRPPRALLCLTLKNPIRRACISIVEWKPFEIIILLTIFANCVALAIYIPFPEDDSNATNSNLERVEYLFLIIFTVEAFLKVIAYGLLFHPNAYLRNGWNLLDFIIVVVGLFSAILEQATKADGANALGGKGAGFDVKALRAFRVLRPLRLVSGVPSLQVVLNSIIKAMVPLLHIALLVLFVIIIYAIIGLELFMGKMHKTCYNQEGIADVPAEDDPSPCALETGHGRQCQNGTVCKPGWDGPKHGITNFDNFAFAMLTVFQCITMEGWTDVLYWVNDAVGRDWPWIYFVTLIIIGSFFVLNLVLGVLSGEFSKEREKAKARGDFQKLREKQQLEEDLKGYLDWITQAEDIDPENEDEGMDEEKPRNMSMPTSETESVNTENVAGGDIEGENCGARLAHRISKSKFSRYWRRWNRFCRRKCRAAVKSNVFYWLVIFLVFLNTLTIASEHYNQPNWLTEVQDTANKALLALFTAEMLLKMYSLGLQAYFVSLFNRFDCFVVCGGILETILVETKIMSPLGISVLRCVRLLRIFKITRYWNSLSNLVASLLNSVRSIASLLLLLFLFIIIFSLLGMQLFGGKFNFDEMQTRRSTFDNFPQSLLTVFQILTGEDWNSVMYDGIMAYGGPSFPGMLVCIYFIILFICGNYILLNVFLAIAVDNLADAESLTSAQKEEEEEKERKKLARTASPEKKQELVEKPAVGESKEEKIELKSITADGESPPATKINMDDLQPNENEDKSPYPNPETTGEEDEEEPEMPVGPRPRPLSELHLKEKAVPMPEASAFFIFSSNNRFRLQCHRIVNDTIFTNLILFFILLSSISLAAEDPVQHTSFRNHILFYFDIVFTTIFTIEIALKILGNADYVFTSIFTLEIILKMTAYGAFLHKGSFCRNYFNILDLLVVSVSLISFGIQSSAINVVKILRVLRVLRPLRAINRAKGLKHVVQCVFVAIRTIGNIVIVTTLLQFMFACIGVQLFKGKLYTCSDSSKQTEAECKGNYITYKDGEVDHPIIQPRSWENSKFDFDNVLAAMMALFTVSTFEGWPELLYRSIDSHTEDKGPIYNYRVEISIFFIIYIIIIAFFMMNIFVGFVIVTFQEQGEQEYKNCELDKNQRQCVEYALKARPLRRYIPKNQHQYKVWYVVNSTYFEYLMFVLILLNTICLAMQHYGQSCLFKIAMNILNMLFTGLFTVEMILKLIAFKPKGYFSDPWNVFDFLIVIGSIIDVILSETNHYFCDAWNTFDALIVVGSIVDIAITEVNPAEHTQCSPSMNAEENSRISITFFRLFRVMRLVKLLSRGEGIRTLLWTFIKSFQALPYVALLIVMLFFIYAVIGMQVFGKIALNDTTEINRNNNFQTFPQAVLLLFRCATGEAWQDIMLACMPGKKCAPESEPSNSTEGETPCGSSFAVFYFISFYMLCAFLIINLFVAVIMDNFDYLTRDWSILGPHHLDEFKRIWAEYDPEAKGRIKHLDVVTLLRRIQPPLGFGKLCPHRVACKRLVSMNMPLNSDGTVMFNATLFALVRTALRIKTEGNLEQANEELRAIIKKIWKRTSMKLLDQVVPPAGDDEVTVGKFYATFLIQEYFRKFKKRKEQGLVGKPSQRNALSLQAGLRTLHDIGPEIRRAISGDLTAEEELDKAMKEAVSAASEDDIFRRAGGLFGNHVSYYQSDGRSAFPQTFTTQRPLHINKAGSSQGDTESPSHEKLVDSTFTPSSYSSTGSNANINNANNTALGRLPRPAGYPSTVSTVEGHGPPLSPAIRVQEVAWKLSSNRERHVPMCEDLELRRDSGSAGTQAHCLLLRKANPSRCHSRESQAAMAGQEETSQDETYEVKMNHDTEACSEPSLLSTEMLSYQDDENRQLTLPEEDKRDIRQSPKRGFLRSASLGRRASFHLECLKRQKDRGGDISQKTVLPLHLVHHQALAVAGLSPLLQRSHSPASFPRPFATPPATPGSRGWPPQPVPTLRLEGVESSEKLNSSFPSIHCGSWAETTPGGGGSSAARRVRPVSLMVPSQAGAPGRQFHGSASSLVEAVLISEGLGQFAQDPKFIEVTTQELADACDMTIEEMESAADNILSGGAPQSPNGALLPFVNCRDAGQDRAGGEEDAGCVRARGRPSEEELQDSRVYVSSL

[2] = Plasma protein binding assay (equilibrium dialysis), human plasma; assay type: in vitro ADME; conditions: pH 7.4
Procedure: Human and mouse plasma (150 μL) containing test compound (3 μM, final concentration) and sodium phosphate buffer (150 μL, 100 mM, pH 7.4) were added to the equilibrium dialysis device and equilibrated at 37° C. for 4.5 h with constant shaking. After equilibration, 10 μL of the plasma was taken out from the first half of the well and mixed with 50 μL of blank buffer, and later quenched with 200 μL of 0.05% formic acid in ACN containing 100 ng/mL of Loperamide, Phenacetin & Tolbutamide as internal standards. Similarly, 50 μL of […] was taken from the second half of the well and mixed with 10 μL of blank […] before quenching. […] All samples were centrifuged at 14,000 rpm for 5 min at 4° C. Warfarin and naltrexone were used as positive controls. Supernatant of all samples were analyzed by LC-MS/MS.

KV1.4 = biological target: T1, KV1.4 (Homo sapiens, UniProt P22459); experiment: Potassium channels patch-clamp (QPatch), KV1.4; assay type: cell-based
T1 construct: expressed in transfected cells; host or cells: LTK
T1 sequence (P22459 whole entry): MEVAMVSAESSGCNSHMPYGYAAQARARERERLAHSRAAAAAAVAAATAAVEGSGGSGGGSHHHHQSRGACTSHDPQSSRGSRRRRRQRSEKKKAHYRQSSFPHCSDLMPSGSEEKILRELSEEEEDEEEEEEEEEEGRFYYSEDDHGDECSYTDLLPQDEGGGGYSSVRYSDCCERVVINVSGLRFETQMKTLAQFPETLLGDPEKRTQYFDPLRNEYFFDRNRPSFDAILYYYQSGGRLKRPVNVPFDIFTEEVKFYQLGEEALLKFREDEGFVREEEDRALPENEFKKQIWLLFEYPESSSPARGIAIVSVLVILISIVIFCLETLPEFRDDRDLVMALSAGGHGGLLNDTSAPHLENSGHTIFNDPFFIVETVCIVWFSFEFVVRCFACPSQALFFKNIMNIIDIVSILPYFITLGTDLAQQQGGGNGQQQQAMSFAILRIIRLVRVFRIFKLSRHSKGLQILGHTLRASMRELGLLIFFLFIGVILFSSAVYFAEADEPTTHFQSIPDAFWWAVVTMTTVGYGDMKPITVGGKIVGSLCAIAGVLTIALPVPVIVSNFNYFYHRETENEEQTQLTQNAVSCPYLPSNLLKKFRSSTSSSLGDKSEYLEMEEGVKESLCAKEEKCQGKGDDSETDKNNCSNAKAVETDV
Procedure: (§1) The effects of Group 4 compounds on related potassium channels were evaluated by patch-clamp using a QPatch HTX automated electrophysiology platform (Sophion, Denmark). The giga-seal and whole-cell requirements for the automated electrophysiology were the following: minimum seal resistance=0.1 GO, holding potential=−80 mV, holding pressure=−20 mbar; and positioning pressure=−70 mbar.

KV3.1 = biological target: T2, KV3.1 (Mus musculus, UniProt P15388); experiment: Potassium channels patch-clamp (QPatch), KV3.1; assay type: cell-based
T2 construct: expressed in transfected cells; host or cells: L929
T2 sequence (P15388 1-511): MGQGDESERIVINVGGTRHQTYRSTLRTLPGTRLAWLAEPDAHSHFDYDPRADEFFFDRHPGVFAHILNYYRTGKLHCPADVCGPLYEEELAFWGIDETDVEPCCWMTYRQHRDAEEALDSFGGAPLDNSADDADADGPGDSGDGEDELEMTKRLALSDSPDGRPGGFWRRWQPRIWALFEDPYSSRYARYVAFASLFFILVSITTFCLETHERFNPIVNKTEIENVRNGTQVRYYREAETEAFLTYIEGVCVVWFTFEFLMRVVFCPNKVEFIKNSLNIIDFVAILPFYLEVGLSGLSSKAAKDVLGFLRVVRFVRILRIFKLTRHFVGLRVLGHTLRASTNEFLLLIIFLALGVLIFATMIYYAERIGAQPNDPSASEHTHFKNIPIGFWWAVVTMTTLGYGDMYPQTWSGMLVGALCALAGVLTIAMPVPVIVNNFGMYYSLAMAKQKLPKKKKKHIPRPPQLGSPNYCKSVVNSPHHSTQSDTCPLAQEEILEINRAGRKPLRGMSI
Procedure: as §1

KCa2.2 = biological target: T3, KCa2.2 (Rattus norvegicus, UniProt P70604); experiment: Potassium channels patch-clamp (QPatch), KCa2.2; assay type: cell-based
T3 construct: expressed in transfected cells; host or cells: HEK
T3 sequence (P70604 whole entry): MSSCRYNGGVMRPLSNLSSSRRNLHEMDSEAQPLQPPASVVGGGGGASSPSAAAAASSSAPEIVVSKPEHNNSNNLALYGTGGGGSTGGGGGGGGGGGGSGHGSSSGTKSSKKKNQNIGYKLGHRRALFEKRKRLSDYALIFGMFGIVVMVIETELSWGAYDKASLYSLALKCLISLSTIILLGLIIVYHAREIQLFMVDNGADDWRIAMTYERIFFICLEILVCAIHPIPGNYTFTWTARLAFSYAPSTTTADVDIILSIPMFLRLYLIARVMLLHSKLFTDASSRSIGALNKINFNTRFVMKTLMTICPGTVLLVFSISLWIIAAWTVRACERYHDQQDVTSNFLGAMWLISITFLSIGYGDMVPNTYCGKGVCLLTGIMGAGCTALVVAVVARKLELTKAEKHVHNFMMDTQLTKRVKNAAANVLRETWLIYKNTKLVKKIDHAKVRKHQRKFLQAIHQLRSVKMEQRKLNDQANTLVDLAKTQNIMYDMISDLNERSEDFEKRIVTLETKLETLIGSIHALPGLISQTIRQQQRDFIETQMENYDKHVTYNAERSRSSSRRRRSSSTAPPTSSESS
Procedure: as §1

KCa3.1 channel = KCa3.1 channel (Homo sapiens, UniProt O15554); experiment: KCa3.1 patch-clamp (QPatch HTX automated and manual); assay type: cell-based
Procedure: The effect of the compounds on KCa3.1 channel was evaluated by patch-clamp using a QPatch HTX automated electrophysiology platform (Sophion, Denmark) and by manual patch-clamp (HEKA, Germany). For QPatch experiments, the giga-seal and whole-cell requirements for the automated electrophysiology were the following: minimum seal resistance=0.1 GQ; holding potential=−80 mV; holding pressure=−20 mbar; and positioning pressure=−70 mbar. For KCa3.1 experiment, the external solution was Na^+-Ringer's and contained (in mM): 160 NaCl; 10 HEPES; 4.5 KCl; 1 MgCl2; and 2 CaCl2 (pH=7.4, 310 mOsm). […] Following establishment of the whole-cell configuration, cells were held at −80 mV and KCa3.1 currents elicited by a voltage protocol that held at −80 mV for 20 ms, stepped to −120 mV for 20 ms, ramped from −120 to +40 mV over 200 ms, and then stepped back to −120 mV for 20 ms. This pulse protocol was applied every 10 s. Current slopes (in amperes per second) were measured using the Sophion QPatch software and exported to Microsoft Excel and GraphPad Prism 7 for analysis. […] Curve-fitting and IC50 determination were performed using GraphPad Prism software.

[3] = tested on: middle cerebral artery occlusion (MCAO); experiment: Neurological behavioral evaluation in MCAO model (18-point system); assay type: in vivo, SD male rats; conditions: 48 h and day 7, rat MCAO, vs Edaravone
Source text: The animals were individually assessed based on the scoring method described in Table 18.

COC(=O)C1=C(C)NC(C)=C(C(=O)OC)C1c1ccc(F)c(C(F)(F)F)c1 [Compound 101]
Microsomal Stability (human) % remaining @ 30 mins [1]: 53%
drug/control (% remaining @ 30 mins) [1]: 1.6
IC50 (CaV1.2 channel): 3.2 µM
fraction unbound at 4.5 h, 3 μM [2]: 0.0073
IC50 (KV1.4): > 10 µM
IC50 (KV3.1): > 10 µM
IC50 (KCa2.2): > 10 µM
IC50 (KCa3.1 channel; IC50 (nM), block of KCa3.1, patch clamp (Table 2)): 16 ± 0.2 nM
IC50 (KCa3.1 channel; KCa3.1, Table 5): 16.2 ± 0.2 nM

COC(=O)C1=CNC=C(C(=O)OC)C1c1ccc(F)c(C(F)(F)F)c1 [Compound 103, Dimethyl 4-(4-fluoro-3-(trifluoromethyl)phenyl)-1,4-dihydropyridine-3,5-dicarboxylate]
Microsomal Stability (human) % remaining @ 30 mins [1]: 25%
drug/control (% remaining @ 30 mins) [1]: 3.7
IC50 (CaV1.2 channel): 13.5 µM
IC50 (KV1.4): > 10 µM
IC50 (KV3.1): > 10 µM
IC50 (KCa2.2): > 10 µM
neurological behavioral scores [3]: improves neurological behavior scores more effectively than Edaravone; also recorded: improved neurological behavioral scores
IC50 (KCa3.1 channel; KCa3.1, Table 5): 6.1 ± 0.9 nM
IC50 (KCa3.1 channel; KCa3.1 IC50 (nM), Table 3): 6.1 nM
